Reference: patent US20240158446A1, “CYCLIC COMPOUND HAVING SELECTIVE INHIBITORY ACTION ON KRAS OVER HRAS AND NRAS” (CHUGAI SEIYAKU KABUSHIKI KAISHA, priority 2021, published 2024)
*1 amine or outer side, *2 acyl side, *3 side chain or, on linkers, in order; H or OH if unused. Where a SMILES comes first, the peptide text is derived from it. Bridges are numbered along the chain shown (N, C = ends). [ ]: non-standard residue; d: D form. The star is where a group is joined. hPhe(3,5-F2-4-CF3) = N[C@@H](CCc1cc(F)c(C(F)(F)F)c(F)c1)C(=O)O; NPrPhe(4-CF3) = CCCN[C@@H](Cc1ccc(C(F)(F)F)cc1)C(=O)O; NMeAbu(4,4,4-F3) = CN[C@@H](CC(F)(F)F)C(=O)O; X13 = O=C([C@@H](N[*:1])C1CC(F)(F)C1)[*:2]; NMeGly(cPent) = CN[C@H](C(=O)O)C1CCCC1; Ac4c(3,3-F2) = NC1(C(=O)O)CC(F)(F)C1; X11 = CCC[C@](C)(N[*:1])C(=O)[*:2]; αMeCha = C[C@](N)(CC1CCCCC1)C(=O)O; Nva(3-Et) = CCC(CC)[C@H](N)C(=O)O; αMeI = CC[C@H](C)[C@](C)(N)C(=O)O; NMeD = CN[C@@H](CC(=O)O)C(=O)O; Ac4c(3-oxa) = NC1(C(=O)O)COC1; NMeL = CN[C@@H](CC(C)C)C(=O)O; Iva = CC[C@](C)(N)C(=O)O; Morpholide = C1CN(*)CCO1; Ac5c = NC1(C(=O)O)CCCC1; Aze = O=C(O)[C@@H]1CCN1; Sar = CNCC(=O)O

Assays:
[1] = molecular target: GDP-bound KRAS wild-type protein (Homo sapiens, UniProt P01116); assay: Binding to KRAS by surface plasmon resonance (SPR), Single Cycle Kinetics; conditions: SPR Single Cycle Kinetics, GDP-bound KRAS wild-type protein, 1:1 binding model; read-out: KRAS KD
[2] = molecular target: GDP-bound HRAS wild-type protein (Homo sapiens, UniProt P01112); assay: Binding to HRAS by surface plasmon resonance (SPR), Single Cycle Kinetics; conditions: SPR, GDP-bound HRAS wild-type protein vs GDP-bound KRAS wild-type protein
[3] = molecular target: GDP-bound NRAS wild-type protein (Homo sapiens, UniProt P01111); assay: Binding to NRAS by surface plasmon resonance (SPR), Single Cycle Kinetics; conditions: SPR, GDP-bound NRAS wild-type protein vs GDP-bound KRAS wild-type protein
GDP-bound NRAS wild-type protein, sequence (P01111 whole entry): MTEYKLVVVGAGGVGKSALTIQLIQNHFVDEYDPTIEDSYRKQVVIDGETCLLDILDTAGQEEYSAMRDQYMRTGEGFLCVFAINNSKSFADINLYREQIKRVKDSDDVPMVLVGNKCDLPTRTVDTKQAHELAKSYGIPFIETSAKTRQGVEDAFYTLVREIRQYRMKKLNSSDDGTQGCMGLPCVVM

GDP-bound HRAS wild-type protein, sequence (P01112 whole entry): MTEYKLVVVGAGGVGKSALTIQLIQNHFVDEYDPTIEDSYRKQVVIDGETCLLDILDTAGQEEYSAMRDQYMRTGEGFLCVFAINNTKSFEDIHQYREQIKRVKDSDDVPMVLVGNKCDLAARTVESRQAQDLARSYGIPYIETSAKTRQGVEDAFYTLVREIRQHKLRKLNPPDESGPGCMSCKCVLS
GDP-bound KRAS wild-type protein, sequence (P01116 whole entry): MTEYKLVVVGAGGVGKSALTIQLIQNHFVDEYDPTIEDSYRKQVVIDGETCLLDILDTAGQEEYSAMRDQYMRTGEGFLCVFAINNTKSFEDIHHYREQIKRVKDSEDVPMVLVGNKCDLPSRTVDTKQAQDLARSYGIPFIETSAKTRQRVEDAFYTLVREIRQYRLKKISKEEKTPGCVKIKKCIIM

SMILES | Kd [1] [nM] | HRAS/KRAS (ratio of KD value with respect to HRAS to KD value with respect to KRAS) [2] | NRAS/KRAS (ratio of KD value with respect to NRAS to KD value with respect to KRAS) [3]
CCCN1C(=O)CN(C)C(=O)CN(C)C(=O)[C@H]([C@@H](C)CC)NC(=O)[C@H](CC(C)C)N(C)C(=O)C[C@@H](C(=O)N2CCOCC2)N(C)C(=O)[C@H](C2CCCC2)N(C)C(=O)[C@](C)([C@@H](C)CC)NC(=O)[C@@H]2CCCN2C(=O)[C@H](CCc2cc(F)c(C(F)(F)F)c(F)c2)NC(=O)CN(C)C(=O)[C@@H]1Cc1ccc(C(F)(F)F)cc1 [PP0757] ([NMeL]I[Sar][Sar][NPrPhe(4-CF3)][Sar][hPhe(3,5-F2-4-CF3)]P[αMeI][NMeGly(cPent)][NMeD]-Morpholide; lactam N-11) | 4 | C (A compound having a KD ratio of 0.1 or more and less than 3 is denoted as C) | B (a compound having 3 or more and less than 10 is denoted as B)
CCCN1C(=O)CN(C)C(=O)CN(C)C(=O)[C@H]([C@@H](C)CC)NC(=O)[C@H](CC(C)C)N(C)C(=O)C[C@@H](C(=O)N2CCOCC2)N(C)C(=O)[C@H](C2CCCC2)N(C)C(=O)[C@](C)(CC2CCCCC2)NC(=O)[C@@H]2CCCN2C(=O)[C@H](CCc2cc(F)c(C(F)(F)F)c(F)c2)NC(=O)CN(C)C(=O)[C@@H]1Cc1ccc(C(F)(F)F)cc1 [PP0760] ([NMeL]I[Sar][Sar][NPrPhe(4-CF3)][Sar][hPhe(3,5-F2-4-CF3)]P[αMeCha][NMeGly(cPent)][NMeD]-Morpholide; lactam N-11) | 16 | C (A compound having a KD ratio of 0.1 or more and less than 3 is denoted as C) | B (a compound having 3 or more and less than 10 is denoted as B)
CCCN1C(=O)CN(C)C(=O)CN(C)C(=O)[C@H]([C@@H](C)CC)NC(=O)[C@H](CC(C)C)N(C)C(=O)C[C@@H](C(=O)N2CCOCC2)N(C)C(=O)[C@H](CC(F)(F)F)N(C)C(=O)C2(CCCC2)NC(=O)[C@@H]2CCCN2C(=O)[C@H](CCc2cc(F)c(C(F)(F)F)c(F)c2)NC(=O)CN(C)C(=O)[C@@H]1Cc1ccc(C(F)(F)F)cc1 [PP0767] ([NMeL]I[Sar][Sar][NPrPhe(4-CF3)][Sar][hPhe(3,5-F2-4-CF3)]P[Ac5c][NMeAbu(4,4,4-F3)][NMeD]-Morpholide; lactam N-11) | 1.9 | C (A compound having a KD ratio of 0.1 or more and less than 3 is denoted as C) | B (a compound having 3 or more and less than 10 is denoted as B)
CCCN1C(=O)CN(C)C(=O)[C@@H]2CCN2C(=O)[C@H]([C@@H](C)CC)NC(=O)[C@H](CC(C)C)N(C)C(=O)C[C@@H](C(=O)N2CCOCC2)N(C)C(=O)[C@H](C2CCCC2)N(C)C(=O)[C@](C)([C@@H](C)CC)NC(=O)[C@@H]2CCCN2C(=O)[C@H](CCc2cc(F)c(C(F)(F)F)c(F)c2)NC(=O)CN(C)C(=O)[C@@H]1Cc1ccc(C(F)(F)F)cc1 [PP0774] ([NMeL]I[Aze][Sar][NPrPhe(4-CF3)][Sar][hPhe(3,5-F2-4-CF3)]P[αMeI][NMeGly(cPent)][NMeD]-Morpholide; lactam N-11) | 17 | B (a compound having 3 or more and less than 10 is denoted as B) | B (a compound having 3 or more and less than 10 is denoted as B)
CCCN1C(=O)CN(C)C(=O)[C@@H]2CCN2C(=O)[C@H]([C@@H](C)CC)NC(=O)[C@H](CC(C)C)N(C)C(=O)C[C@@H](C(=O)N2CCOCC2)N(C)C(=O)[C@H](C2CCCC2)N(C)C(=O)C2(COC2)NC(=O)[C@@H]2CCCN2C(=O)[C@H](CCc2cc(F)c(C(F)(F)F)c(F)c2)NC(=O)CN(C)C(=O)[C@@H]1Cc1ccc(C(F)(F)F)cc1 [PP0782] ([NMeL]I[Aze][Sar][NPrPhe(4-CF3)][Sar][hPhe(3,5-F2-4-CF3)]P[Ac4c(3-oxa)][NMeGly(cPent)][NMeD]-Morpholide; lactam N-11) | 2.3 | B (a compound having 3 or more and less than 10 is denoted as B) | B (a compound having 3 or more and less than 10 is denoted as B)

Stronger by Kd [1], values ahead:

Kd [1] [nM] | SMILES | HRAS/KRAS (ratio of KD value with respect to HRAS to KD value with respect to KRAS) [2] | NRAS/KRAS (ratio of KD value with respect to NRAS to KD value with respect to KRAS) [3]
1.6 | CCCN1C(=O)CN(C)C(=O)CN(C)C(=O)[C@H]([C@@H](C)CC)NC(=O)[C@H](CC(C)C)N(C)C(=O)C[C@@H](C(=O)N2CCOCC2)N(C)C(=O)[C@H](C2CCCC2)N(C)C(=O)[C@](C)(CCC)NC(=O)[C@@H]2CCCN2C(=O)[C@H](CCc2cc(F)c(C(F)(F)F)c(F)c2)NC(=O)CN(C)C(=O)[C@@H]1Cc1ccc(C(F)(F)F)cc1 [PP0758] ([NMeL]I[Sar][Sar][NPrPhe(4-CF3)][Sar][hPhe(3,5-F2-4-CF3)]P[X11][NMeGly(cPent)][NMeD]-Morpholide; lactam N-11) | C (A compound having a KD ratio of 0.1 or more and less than 3 is denoted as C) | B (a compound having 3 or more and less than 10 is denoted as B)
0.97 | CCCN1C(=O)CN(C)C(=O)CN(C)C(=O)[C@H](C(CC)CC)NC(=O)[C@H](CC(C)C)N(C)C(=O)C[C@@H](C(=O)N2CCOCC2)N(C)C(=O)[C@H](C2CCCC2)N(C)C(=O)C2(CCCC2)NC(=O)[C@@H]2CCCN2C(=O)[C@H](CCc2cc(F)c(C(F)(F)F)c(F)c2)NC(=O)CN(C)C(=O)[C@@H]1Cc1ccc(C(F)(F)F)cc1 [PP0768] ([NMeL][Nva(3-Et)][Sar][Sar][NPrPhe(4-CF3)][Sar][hPhe(3,5-F2-4-CF3)]P[Ac5c][NMeGly(cPent)][NMeD]-Morpholide; lactam N-11) | C (A compound having a KD ratio of 0.1 or more and less than 3 is denoted as C) | B (a compound having 3 or more and less than 10 is denoted as B)
0.84 | CCCN1C(=O)CN(C)C(=O)[C@@H]2CCN2C(=O)[C@H]([C@@H](C)CC)NC(=O)[C@H](CC(C)C)N(C)C(=O)C[C@@H](C(=O)N2CCOCC2)N(C)C(=O)[C@H](C2CCCC2)N(C)C(=O)C2(CCCC2)NC(=O)[C@@H]2CCCN2C(=O)[C@H](CCc2cc(F)c(C(F)(F)F)c(F)c2)NC(=O)CN(C)C(=O)[C@@H]1Cc1ccc(C(F)(F)F)cc1 [PP0770] ([NMeL]I[Aze][Sar][NPrPhe(4-CF3)][Sar][hPhe(3,5-F2-4-CF3)]P[Ac5c][NMeGly(cPent)][NMeD]-Morpholide; lactam N-11) | B (a compound having 3 or more and less than 10 is denoted as B) | B (a compound having 3 or more and less than 10 is denoted as B)
0.49 | CCCN1C(=O)CN(C)C(=O)CN(C)C(=O)[C@H]([C@@H](C)CC)NC(=O)[C@H](CC(C)C)N(C)C(=O)C[C@@H](C(=O)N2CCOCC2)N(C)C(=O)[C@H](C2CCCC2)N(C)C(=O)[C@](C)(CC)NC(=O)[C@@H]2CCCN2C(=O)[C@H](CCc2cc(F)c(C(F)(F)F)c(F)c2)NC(=O)CN(C)C(=O)[C@@H]1Cc1ccc(C(F)(F)F)cc1 [PP0754] ([NMeL]I[Sar][Sar][NPrPhe(4-CF3)][Sar][hPhe(3,5-F2-4-CF3)]P[Iva][NMeGly(cPent)][NMeD]-Morpholide; lactam N-11) | C (A compound having a KD ratio of 0.1 or more and less than 3 is denoted as C) | B (a compound having 3 or more and less than 10 is denoted as B)
0.31 | CCCN1C(=O)CN(C)C(=O)CN(C)C(=O)[C@H]([C@@H](C)CC)NC(=O)[C@H](CC(C)C)N(C)C(=O)C[C@@H](C(=O)N2CCOCC2)N(C)C(=O)[C@H](C2CCCC2)N(C)C(=O)C2(COC2)NC(=O)[C@@H]2CCCN2C(=O)[C@H](CCc2cc(F)c(C(F)(F)F)c(F)c2)NC(=O)CN(C)C(=O)[C@@H]1Cc1ccc(C(F)(F)F)cc1 [PP0765] ([NMeL]I[Sar][Sar][NPrPhe(4-CF3)][Sar][hPhe(3,5-F2-4-CF3)]P[Ac4c(3-oxa)][NMeGly(cPent)][NMeD]-Morpholide; lactam N-11) | C (A compound having a KD ratio of 0.1 or more and less than 3 is denoted as C) | B (a compound having 3 or more and less than 10 is denoted as B)
0.21 | CCCN1C(=O)CN(C)C(=O)CN(C)C(=O)[C@H](C2CC(F)(F)C2)NC(=O)[C@H](CC(C)C)N(C)C(=O)C[C@@H](C(=O)N2CCOCC2)N(C)C(=O)[C@H](C2CCCC2)N(C)C(=O)C2(CCCC2)NC(=O)[C@@H]2CCCN2C(=O)[C@H](CCc2cc(F)c(C(F)(F)F)c(F)c2)NC(=O)CN(C)C(=O)[C@@H]1Cc1ccc(C(F)(F)F)cc1 [PP0769] ([NMeL][X13][Sar][Sar][NPrPhe(4-CF3)][Sar][hPhe(3,5-F2-4-CF3)]P[Ac5c][NMeGly(cPent)][NMeD]-Morpholide; lactam N-11) | C (A compound having a KD ratio of 0.1 or more and less than 3 is denoted as C) | B (a compound having 3 or more and less than 10 is denoted as B)
0.096 | CCCN1C(=O)CN(C)C(=O)CN(C)C(=O)[C@H]([C@@H](C)CC)NC(=O)[C@H](CC(C)C)N(C)C(=O)C[C@@H](C(=O)N2CCOCC2)N(C)C(=O)[C@H](C2CCCC2)N(C)C(=O)C2(CC(F)(F)C2)NC(=O)[C@@H]2CCCN2C(=O)[C@H](CCc2cc(F)c(C(F)(F)F)c(F)c2)NC(=O)CN(C)C(=O)[C@@H]1Cc1ccc(C(F)(F)F)cc1 [PP0766] ([NMeL]I[Sar][Sar][NPrPhe(4-CF3)][Sar][hPhe(3,5-F2-4-CF3)]P[Ac4c(3,3-F2)][NMeGly(cPent)][NMeD]-Morpholide; lactam N-11) | B (a compound having 3 or more and less than 10 is denoted as B) | B (a compound having 3 or more and less than 10 is denoted as B)
